Assay results as given in ChEMBL document CHEMBL5104161, “Novel analgesic/anti-inflammatory agents: 1,5-Diarylpyrrole nitrooxyethyl sulfides and related compounds as Cyclooxygenase-2 inhibitors containing a nitric oxide donor moiety endowed with vasorelaxant properties” (Eur J Med Chem, 2022).

Columns and labels:
J774 = assay: Ratio IC50 for inhibition of COX1 in mouse J774 cells over inhibition of COX2 in mouse J774 cells; type: cell-based
Rattus norvegicus [1] = assay: Anti-hyperalgesic activity in carrageenan-induced hyperalgesia male Sprague-Dawley rat model assessed as paw withdrawal threshold at 20 mg/kg, po measured 30 mins after compound administration by paw pressure test; type: functional; details: 0.5 h
Mus musculus [2] = assay: Analgesic activity against acetic acid-induced male CD1 albino mouse model assessed as number of writhes at 10 mg/kg, po measured after 30 mins by abdominal constriction test; type: functional; details: 0.5 h
Mus musculus [3] = assay: Analgesic activity against acetic acid-induced male CD1 albino mouse model assessed as number of writhes at 20 mg/kg, po measured after 30 mins by abdominal constriction test; type: functional; details: 0.5 h
Aorta = assay: Vasorelaxant activity in Sprague-Dawley rat aortic rings assessed as reduction in L-phenylephrine-induced contractions at 0.01 to 100 uM relative to control; type: functional; details: dose 0.01-100 µM
Rattus norvegicus [4] = assay: Anti-hyperalgesic activity in carrageenan-induced hyperalgesia male Sprague-Dawley rat model assessed as paw withdrawal threshold at 20 mg/kg, po measured 45 mins after compound administration by paw pressure test; type: functional; details: 0.75 h
Rattus norvegicus [5] = assay: Anti-hyperalgesic activity in carrageenan-induced hyperalgesia male Sprague-Dawley rat model assessed as paw edema volume at 20 mg/kg, po measured 30 mins after compound administration by plethysmometer analysis; type: functional; details: 0.5 h
[6] = target: T1, Prostaglandin G/H synthase 2 (Mus musculus, UniProt Q05769); assay: Inhibition of COX2 in LPS-stimulated mouse J774 cells assessed as inhibition of PGE2 production and measured after 24 hrs by enzyme immuno-assay (EIA); type: cell-based
T1 sequence (Q05769 whole entry): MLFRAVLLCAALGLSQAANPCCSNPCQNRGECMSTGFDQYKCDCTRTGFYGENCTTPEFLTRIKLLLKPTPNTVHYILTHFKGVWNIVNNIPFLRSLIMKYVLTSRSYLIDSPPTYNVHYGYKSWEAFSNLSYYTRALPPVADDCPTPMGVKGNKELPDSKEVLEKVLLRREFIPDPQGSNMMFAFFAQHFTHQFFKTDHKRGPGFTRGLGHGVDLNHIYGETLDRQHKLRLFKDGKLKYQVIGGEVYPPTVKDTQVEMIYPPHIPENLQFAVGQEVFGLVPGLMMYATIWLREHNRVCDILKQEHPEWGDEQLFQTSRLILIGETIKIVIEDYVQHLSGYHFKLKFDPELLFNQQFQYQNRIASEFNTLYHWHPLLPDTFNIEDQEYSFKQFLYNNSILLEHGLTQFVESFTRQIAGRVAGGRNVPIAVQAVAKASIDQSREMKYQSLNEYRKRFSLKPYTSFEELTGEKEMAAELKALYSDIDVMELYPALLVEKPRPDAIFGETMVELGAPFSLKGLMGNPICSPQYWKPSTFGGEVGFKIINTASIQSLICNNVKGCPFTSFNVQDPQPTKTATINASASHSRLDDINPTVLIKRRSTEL

Mus musculus [7] = assay: Analgesic activity against acetic acid-induced male CD1 albino mouse model assessed as number of writhes at 30 mg/kg, po measured after 30 mins by abdominal constriction test; type: functional; details: 0.5 h
[8] = target: T2, Prostaglandin G/H synthase 1 (Mus musculus, UniProt P22437); assay: Inhibition of COX1 in mouse J774 cells using arachidonic acid as substrate preincubated for 15 mins followed substrate addition and assessed as inhibition of PGE2 production after 30 mins by enzyme immuno-assay (EIA); type: cell-based
T2 sequence (P22437 whole entry): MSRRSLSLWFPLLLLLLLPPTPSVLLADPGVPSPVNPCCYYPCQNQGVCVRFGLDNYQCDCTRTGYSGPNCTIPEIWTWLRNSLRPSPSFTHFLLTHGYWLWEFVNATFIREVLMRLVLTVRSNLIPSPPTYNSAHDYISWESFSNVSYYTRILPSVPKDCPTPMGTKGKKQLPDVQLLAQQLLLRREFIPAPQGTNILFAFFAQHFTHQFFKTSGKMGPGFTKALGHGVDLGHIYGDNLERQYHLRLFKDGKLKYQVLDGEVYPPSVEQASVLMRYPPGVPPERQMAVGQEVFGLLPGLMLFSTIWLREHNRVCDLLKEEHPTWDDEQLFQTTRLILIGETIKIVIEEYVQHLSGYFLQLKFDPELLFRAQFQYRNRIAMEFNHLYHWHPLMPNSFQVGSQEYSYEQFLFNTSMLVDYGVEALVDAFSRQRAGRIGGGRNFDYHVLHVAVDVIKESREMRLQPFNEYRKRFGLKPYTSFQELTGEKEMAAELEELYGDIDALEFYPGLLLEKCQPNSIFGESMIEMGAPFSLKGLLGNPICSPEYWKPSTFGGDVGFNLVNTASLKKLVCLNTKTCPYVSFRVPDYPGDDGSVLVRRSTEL

Rattus norvegicus [9] = assay: Anti-hyperalgesic activity in carrageenan-induced hyperalgesia male Sprague-Dawley rat model assessed as paw withdrawal threshold at 20 mg/kg, po measured 15 mins after compound administration by paw pressure test; type: functional; details: 0.25 h
Rattus norvegicus [10] = assay: Anti-hyperalgesic activity in carrageenan-induced hyperalgesia male Sprague-Dawley rat model assessed as paw withdrawal threshold at 20 mg/kg, po measured 60 mins after compound administration by paw pressure test; type: functional; details: 1 h
[11] = Intrinsic clearance in mouse liver microsomes at 1 uM preincubated for 10 mins and measured up to 60 mins by LC-MS/MS analysis; type: ADME, Microsome; details: read-out: CLH
[12] = Half-life in mouse liver microsomes at 1 uM preincubated for 10 mins and measured up to 60 mins by LC-MS/MS analysis; type: ADME, Microsome
[13] = Intrinsic clearance in human liver microsomes at 1 uM preincubated for 10 mins and measured up to 60 mins by LC-MS/MS analysis; type: ADME, Microsome; details: read-out: CLH
[14] = Half-life in human liver microsomes at 1 uM preincubated for 10 mins and measured up to 60 mins by LC-MS/MS analysis; type: ADME, Microsome

| SMILES | Ratio IC50 (J774) | Activity (Rattus norvegicus [1]) | Activity (Mus musculus [2]) | Activity (Mus musculus [3]) | Efficacy (Aorta) | Activity (Rattus norvegicus [4]) | Activity (Rattus norvegicus [5]) | IC50 [6] | Activity (Mus musculus [7]) | IC50 [8] | Activity (Rattus norvegicus [9]) | Activity (Rattus norvegicus [10]) | microsomal CLint at 1 µM [11] | half-life at 1 µM [12] | microsomal CLint at 1 µM [13] | half-life at 1 µM [14] |
| --- | --- | --- | --- | --- | --- | --- | --- | --- | --- | --- | --- | --- | --- | --- | --- | --- |
| Cc1c(CC[S+]([O-])CCO[N+](=O)[O-])cc(-c2ccc(S(C)(=O)=O)cc2)n1-c1ccc(F)c(F)c1 (centres undefined) | > 3330 | 48.2 g | 25.9 | 20.1 | 59% | 44.2 g | 2.2 mL | 3 nM | 21.3 | > 10000 nM | 39.8 g | 38.3 g | – | – | – | – |
| Cc1c(CCOCCO)cc(-c2ccc(S(C)(=O)=O)cc2)n1-c1ccc(F)c(F)c1 | > 23.8 | – | – | – | – | – | – | – | – | – | – | – | – | – | – | – |
| Cc1c(CCSCCO)cc(-c2ccc(S(C)(=O)=O)cc2)n1-c1ccc(F)cc1 | > 1250 | 48.2 g | 26.5 | 23.1 | – | 48.7 g | 2.22 mL | 8 nM | 21.5 | > 10000 nM | 41.5 g | 38.2 g | 73.2 µL/min/mg | 19.2 min | 39.2 µL/min/mg | 36.2 min |
| Cc1c(CCSCCO[N+](=O)[O-])cc(-c2ccc(S(C)(=O)=O)cc2)n1-c1ccccc1 | > 345 | – | – | – | 59% | – | – | 29 nM | – | > 10000 nM | – | – | – | – | – | – |
| Cc1c(CC[S+]([O-])CCO[N+](=O)[O-])cc(-c2ccc(S(C)(=O)=O)cc2)n1-c1ccc(F)cc1 (centres undefined) | > 2000 | 47.2 g | 29.2 | 21.8 | – | 46.1 g | 2.25 mL | 5 nM | 18 | > 10000 nM | 42.3 g | 36.3 g | 40.3 µL/min/mg | 35.1 min | 39.9 µL/min/mg | 34.7 min |
| Cc1c(CCOCCO[N+](=O)[O-])cc(-c2ccc(S(C)(=O)=O)cc2)n1-c1ccc(F)c(F)c1 | > 10.9 | – | – | – | – | – | – | – | – | – | – | – | – | – | – | – |
| Cc1c(CC[S+]([O-])CCO[N+](=O)[O-])cc(-c2ccc(S(C)(=O)=O)cc2)n1-c1ccccc1 (centres undefined) | > 135 | – | – | – | 59% | – | – | 74 nM | – | > 10000 nM | – | – | – | – | – | – |
| CCOc1ccc2ccc(=O)oc2c1 | – | – | – | – | – | – | – | – | – | – | – | – | 297 µL/min/mg | 4.7 min | 113 µL/min/mg | 12.6 min |
| Cc1c(CC[S+]([O-])CCO)cc(-c2ccc(S(C)(=O)=O)cc2)n1-c1ccc(F)c(F)c1 (centres undefined) | > 71.4 | – | – | – | – | – | – | 140 nM | – | > 10000 nM | – | – | – | – | – | – |
| Cc1c(CCSCCO)cc(-c2ccc(S(C)(=O)=O)cc2)n1-c1ccc(F)c(F)c1 | > 588 | 46.6 g | 23.8 | 19.6 | – | 45.3 g | 2.09 mL | 17 nM | 17.4 | > 10000 nM | 37.8 g | 39.6 g | – | – | – | – |
| Cc1c(CC[S+]([O-])CCO)cc(-c2ccc(S(C)(=O)=O)cc2)n1-c1ccccc1 (centres undefined) | > 31.2 | – | – | – | – | – | – | 320 nM | – | > 10000 nM | – | – | – | – | – | – |
| Cc1c(CCOCCO[N+](=O)[O-])cc(-c2ccc(S(C)(=O)=O)cc2)n1-c1ccccc1 | > 588 | – | – | – | – | – | – | – | – | – | – | – | – | – | – | – |
| Cc1c(CCSCCO[N+](=O)[O-])cc(-c2ccc(S(C)(=O)=O)cc2)n1-c1ccc(F)cc1 | > 1110 | 45.9 g | 24.2 | 20.5 | 59% | 44.7 g | 2.18 mL | 9 nM | 20.6 | > 10000 nM | 39.9 g | 37.5 g | 61.2 µL/min/mg | 22.8 min | 132 µL/min/mg | 10.5 min |
| Cc1c(CCOCCO[N+](=O)[O-])cc(-c2ccc(S(C)(=O)=O)cc2)n1-c1ccc(F)cc1 | > 714 | – | – | – | 59% | – | – | – | – | – | – | – | – | – | – | – |
| Cc1c(CC[S+]([O-])CCO)cc(-c2ccc(S(C)(=O)=O)cc2)n1-c1ccc(F)cc1 (centres undefined) | > 11 | – | – | – | – | – | – | 916 nM | – | > 10000 nM | – | – | 9.7 µL/min/mg | 142 min | 3.2 µL/min/mg | 470 min |
| Cc1c(CCSCCO)cc(-c2ccc(S(C)(=O)=O)cc2)n1-c1ccccc1 | > 400 | – | – | – | – | – | – | 25 nM | – | > 10000 nM | – | – | – | – | – | – |
| Cc1c(CCSCCO[N+](=O)[O-])cc(-c2ccc(S(C)(=O)=O)cc2)n1-c1ccc(F)c(F)c1 | > 625 | 46.1 g | 22.5 | 19 | 59% | 45.7 g | 2.31 mL | 16 nM | 20.7 | > 10000 nM | 40.6 g | 37.1 g | – | – | – | – |
